# Assay results from publication PMC7491124, “Studies on sugar transporter CRT1 reveal new characteristics that are critical for cellulase induction in Trichoderma reesei” (Biotechnology for Biofuels, 2020).
# What was measured:
# Type in all cases: cell-based
# [1] = molecular target: T1, CDT-2 (Neurospora crassa, UniProt Q7SD12); assay: radiolabelled lactose uptake in yeast, […] min; settings: labelled compound; 5 mM lactose, pH 6.5, 28 °C
# T1 construct: full-length; PGK1 promoter, centromeric plasmid in S. cerevisiae co-expressing N. crassa GH1-1
# T1 sequence (Q7SD12 1-525): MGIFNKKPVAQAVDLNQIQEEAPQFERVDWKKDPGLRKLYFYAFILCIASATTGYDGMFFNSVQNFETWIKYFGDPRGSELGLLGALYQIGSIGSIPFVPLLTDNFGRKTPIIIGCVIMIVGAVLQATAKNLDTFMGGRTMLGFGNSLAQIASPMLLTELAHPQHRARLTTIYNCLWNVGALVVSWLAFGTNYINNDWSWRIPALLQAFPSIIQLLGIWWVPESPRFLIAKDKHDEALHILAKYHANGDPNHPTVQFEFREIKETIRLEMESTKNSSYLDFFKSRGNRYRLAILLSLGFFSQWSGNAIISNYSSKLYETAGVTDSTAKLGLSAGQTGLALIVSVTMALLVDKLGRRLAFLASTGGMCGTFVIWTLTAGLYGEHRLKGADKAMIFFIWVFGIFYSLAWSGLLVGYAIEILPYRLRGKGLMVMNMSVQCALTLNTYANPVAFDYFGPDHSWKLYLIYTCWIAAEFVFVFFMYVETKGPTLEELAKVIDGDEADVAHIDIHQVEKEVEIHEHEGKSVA
# [2] = molecular target: T2, CRT1-RUT-C30 (Trichoderma reesei, UniProt G0RGH7); assay: radiolabelled sugar uptake in yeast; settings: labelled compound; zero-trans uptake, 100 mM potassium phosphate pH 6.5, 28 °C
# T2 construct: gene TRIREDRAFT_3405; full-length RUT-C30 version with longer N-terminus; codon-optimized synthetic gene, PGK1 promoter, centromeric plasmid in S. cerevisiae co-expressing N. crassa GH1-1
# T2 sequence (G0RGH7 entry or part of it): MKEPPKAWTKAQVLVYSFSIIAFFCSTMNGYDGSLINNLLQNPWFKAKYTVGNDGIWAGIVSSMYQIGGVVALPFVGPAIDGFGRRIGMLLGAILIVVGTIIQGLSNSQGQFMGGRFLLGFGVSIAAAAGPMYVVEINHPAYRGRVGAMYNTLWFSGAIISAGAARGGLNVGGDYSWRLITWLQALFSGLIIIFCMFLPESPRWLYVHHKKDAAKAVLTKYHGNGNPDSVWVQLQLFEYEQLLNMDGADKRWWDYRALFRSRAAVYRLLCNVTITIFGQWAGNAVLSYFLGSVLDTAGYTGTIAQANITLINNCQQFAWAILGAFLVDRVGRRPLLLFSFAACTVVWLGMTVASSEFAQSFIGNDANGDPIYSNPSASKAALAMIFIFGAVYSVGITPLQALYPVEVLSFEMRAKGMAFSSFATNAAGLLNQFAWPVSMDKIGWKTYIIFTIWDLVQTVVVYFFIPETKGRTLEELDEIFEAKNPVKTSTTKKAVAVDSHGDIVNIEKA
# [3] = molecular target: T3, CDT-1 (Neurospora crassa, UniProt Q7SCU1); assay: inhibition of labelled cellobiose uptake in yeast; settings: 5 mM labelled cellobiose, 25 mM inhibitor; pH 6.5, 28 °C
# T3 construct: full-length; PGK1 promoter, centromeric plasmid in S. cerevisiae co-expressing N. crassa GH1-1
# T3 sequence (Q7SCU1 1-579): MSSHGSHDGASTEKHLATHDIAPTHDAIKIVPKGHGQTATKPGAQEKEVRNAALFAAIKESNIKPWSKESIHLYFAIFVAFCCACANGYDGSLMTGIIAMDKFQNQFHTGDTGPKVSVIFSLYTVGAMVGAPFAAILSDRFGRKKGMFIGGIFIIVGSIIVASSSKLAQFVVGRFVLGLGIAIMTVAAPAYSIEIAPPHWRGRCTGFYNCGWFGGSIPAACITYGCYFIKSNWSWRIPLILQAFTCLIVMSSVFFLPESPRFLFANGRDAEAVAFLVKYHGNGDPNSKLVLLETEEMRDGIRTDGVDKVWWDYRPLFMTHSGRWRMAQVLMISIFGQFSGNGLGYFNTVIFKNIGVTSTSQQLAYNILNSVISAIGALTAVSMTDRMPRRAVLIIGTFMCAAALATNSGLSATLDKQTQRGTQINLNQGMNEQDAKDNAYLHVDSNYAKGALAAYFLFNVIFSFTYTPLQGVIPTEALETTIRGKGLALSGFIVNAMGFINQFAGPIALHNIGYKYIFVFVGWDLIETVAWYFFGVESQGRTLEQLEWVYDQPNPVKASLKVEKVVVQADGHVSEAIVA
# [4] = molecular target: T2, CRT1-RUT-C30; assay: inhibition of labelled cellobiose uptake in yeast; settings: 5 mM labelled cellobiose, 25 mM inhibitor; pH 6.5, 28 °C
Km [2] [µM],SMILES,"radiolabelled lactose uptake in yeast, 20 min [1]",% inhibition at 25 mM [3],% inhibition at 25 mM [4]
62.9 ± 27.4,OC[C@H]1O[C@@H](O[C@H]2[C@H](O)[C@@H](O)C(O)O[C@@H]2CO)[C@H](O)[C@@H](O)[C@H]1O (some centres unmarked) [lactose],"higher lactose uptake was seen for the strains which expressed CDT-1, CDT-2 or CRT1-RUT-C30",–,–
–,OC[C@H]1O[C@@H](O[C@H]2[C@H](O)[C@@H](O)[C@H](O[C@H]3[C@H](O)[C@@H](O)C(O)O[C@@H]3CO)O[C@@H]2CO)[C@H](O)[C@@H](O)[C@@H]1O (some centres unmarked) [cellotriose],–,it was inhibited by cellobiose and to some extent by lactose and cellotriose,it was inhibited by cellobiose and to some extent by lactose and cellotriose
3.1 ± 0.7,OC[C@H]1O[C@@H](O[C@H]2[C@H](O)[C@@H](O)C(O)O[C@@H]2CO)[C@H](O)[C@@H](O)[C@@H]1O (some centres unmarked) [cellobiose],–,–,–
